According to publication PMC9379910, “Chimeric Ligands of Pili and Lectin A Inhibit Tolerance, Persistence, and Virulence Factors of Pseudomonas aeruginosa over a Wide Range of Phenotypes” (ACS Infectious Diseases, 2022):

Assays:
LecA [1] = biological target: T1, LecA (Pseudomonas aeruginosa, UniProt Q05097); assay: competitive fluorescence polarization (displacement of βGal-aryl-Dansyl from […] LecA); also motility-enabled binding assay
LecA [2] = biological target: T1, LecA; assay: competitive fluorescence polarization (displacement of βGal-aryl-Dansyl from […] LecA); type: binding
LecA [3] = biological target: T1, LecA; assay: direct fluorescence polarization titration with LecA ([…]); type: binding

T1 sequence (Q05097 2-122): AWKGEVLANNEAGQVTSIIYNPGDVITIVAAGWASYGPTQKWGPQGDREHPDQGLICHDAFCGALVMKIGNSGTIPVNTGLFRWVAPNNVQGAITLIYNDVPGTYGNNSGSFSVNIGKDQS

CCCCCCCC(C)CC(C)CCO[C@@H]1O[C@H](CO)[C@@H](O[C@H]2O[C@H](CO)[C@@H](O)[C@H](O)[C@H]2O)[C@H](O)[C@H]1O (stereo partly drawn) [1a, 3,5-diMeDβM]
IC50 (LecA [1]): 15 µM

CCCCCCCC(C)CC(C)CCO[C@@H]1O[C@H](CO)[C@@H](O[C@@H]2O[C@H](CO)[C@@H](O)[C@H](O)[C@H]2O)[C@H](O)[C@H]1O (stereo partly drawn) [1b, 3,5-diMeDβC]
IC50 (LecA [2]): 13 µM

CN(C)c1cccc2c(S(=O)(=O)Nc3ccc(O[C@@H]4O[C@H](CO)[C@H](O)[C@H](O)[C@H]4O)cc3)cccc12 [βGal-aryl-Dansyl]
Kd (LecA [3]): ~10.7 µM
